Two compounds from the Kinase Knowledgebase extract (Sharma et al. 2016) can be followed below.

For the assay, the target named is EGFR (human) (UniProt P00533). Particulars: mda-mb-231.

Each structure is given as a SMILES string.

Sequence of EGFR (human) (P00533 whole entry, looked up): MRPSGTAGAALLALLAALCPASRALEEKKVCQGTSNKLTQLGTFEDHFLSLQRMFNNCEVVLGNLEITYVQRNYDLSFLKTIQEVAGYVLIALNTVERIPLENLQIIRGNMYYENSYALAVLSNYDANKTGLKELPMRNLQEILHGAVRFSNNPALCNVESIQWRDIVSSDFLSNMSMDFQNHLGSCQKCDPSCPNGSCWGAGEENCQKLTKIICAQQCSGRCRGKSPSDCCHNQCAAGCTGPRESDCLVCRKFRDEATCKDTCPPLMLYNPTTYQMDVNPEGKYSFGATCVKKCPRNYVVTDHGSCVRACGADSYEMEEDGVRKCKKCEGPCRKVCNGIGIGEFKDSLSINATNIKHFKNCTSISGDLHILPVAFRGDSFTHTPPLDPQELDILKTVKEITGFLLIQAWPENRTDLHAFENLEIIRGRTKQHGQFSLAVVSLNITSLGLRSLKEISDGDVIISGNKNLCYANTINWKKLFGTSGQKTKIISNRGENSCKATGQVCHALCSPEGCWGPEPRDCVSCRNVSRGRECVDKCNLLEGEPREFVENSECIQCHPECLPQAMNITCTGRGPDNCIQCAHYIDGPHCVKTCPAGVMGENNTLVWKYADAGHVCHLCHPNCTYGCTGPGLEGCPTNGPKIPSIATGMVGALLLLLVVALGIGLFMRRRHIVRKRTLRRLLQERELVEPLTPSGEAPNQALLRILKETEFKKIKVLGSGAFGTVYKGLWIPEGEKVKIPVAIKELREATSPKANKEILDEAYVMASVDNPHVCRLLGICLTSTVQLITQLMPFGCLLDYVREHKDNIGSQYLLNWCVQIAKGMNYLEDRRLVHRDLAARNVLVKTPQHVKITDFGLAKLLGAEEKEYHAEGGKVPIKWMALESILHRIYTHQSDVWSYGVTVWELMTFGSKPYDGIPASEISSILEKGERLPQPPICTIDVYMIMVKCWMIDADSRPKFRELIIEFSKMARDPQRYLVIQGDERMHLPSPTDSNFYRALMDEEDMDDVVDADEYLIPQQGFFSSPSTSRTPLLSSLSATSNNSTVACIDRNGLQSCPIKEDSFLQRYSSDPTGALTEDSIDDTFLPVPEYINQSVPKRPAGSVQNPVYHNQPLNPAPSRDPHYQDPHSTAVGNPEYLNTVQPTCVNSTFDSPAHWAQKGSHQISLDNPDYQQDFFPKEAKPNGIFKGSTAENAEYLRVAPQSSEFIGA

Broadly, the IC50 is the concentration needed to halve the response being measured. Read a low IC50 as greater potency in that assay. With `C/C(O)=C(/C#N)C(=O)Nc1ccc(OC(F)(F)F)cc1`, the IC50 came out at 28.4 µM.

In turn, `Cc1oncc1C(=O)Nc1ccc(C(F)(F)F)cc1` gave an IC50 of 97 µM.
